# PubChem BioAssay AID1996
# Settings: buffer; pH 7.4; 200.0 µM
row,Structure (SMILES),solubility kinetic
1,COc1cccc(NC(=O)c2cc(-c3ccco3)nc3ccccc23)c1,< 0.4 µg/mL
2,S=C(NCc1ccccc1)NC1CCSc2ccccc21 (centres undefined),1.2 µg/mL
3,CC(=O)c1ccc(NC(=O)c2cc(-c3cccs3)on2)cc1,< 0.3 µg/mL
4,O=C(NC1CC2CCCC(C1)N2C(=O)Nc1ccccc1Cl)C1CC1 (centres undefined),> 54.3 µg/mL
5,Cc1ccc(S(=O)(=O)N2CCOCC2)cc1NC(=O)COc1ccccc1Cc1ccccc1,4.4 µg/mL
6,CCN1C(=O)NC(c2ccc(Cl)cc2)C2=C1CCCC2=O (centres undefined),44.2 µg/mL
7,O=C(Cc1ccc(Cl)cc1)NCC(=O)N1CCCCC1,39.7 µg/mL
8,COc1ccccc1C(=O)NCCSCc1ccccc1Cl,15.1 µg/mL
9,COC(=O)c1c(NC(=O)C(Cl)Cl)sc2c1C(C(=O)OC)CC2 (centres undefined),8.6 µg/mL
10,Cc1ccc(NC(=O)c2c(-c3ccccc3Cl)noc2C)nc1,0.3 µg/mL
11,CN(C(=O)CN1C(=O)NC2(CCCc3ccccc32)C1=O)C1CCCCC1 (centres undefined),> 55.4 µg/mL
12,Cc1c(Cl)cccc1NC(=O)c1cccnc1,> 37 µg/mL
13,CCN1CCN(CCC(=O)Nc2ccc(F)c(F)c2)CC1,> 44.6 µg/mL
14,CC(=O)CC(c1ccccc1)S(=O)(=O)c1ccc([N+](=O)[O-])cc1 (centres undefined),> 50 µg/mL
15,CCOC(=O)C1=C(C)NC2=C(C(=O)OC2)C1c1ccccc1 (centres undefined),> 44.9 µg/mL
16,CC(=O)c1ccc(OC(=O)CCNC(=O)c2ccccc2)cc1,27.6 µg/mL
17,S=C(NCc1ccc(Cl)cc1)N1CCN(c2ccccn2)CC1,< 0.2 µg/mL

row,Structure (SMILES),solubility kinetic
1,Cc1ccc2[nH]cc(CCNC(=O)c3cccs3)c2c1,> 42.7 µg/mL
2,COCCCn1c(=O)c2sccc2n(Cc2ccc(C)cc2)c1=O,< 0.4 µg/mL
3,CCC1CCCCN1CC(=O)c1c(C)[nH]c2cc(C)ccc12 (centres undefined),33 µg/mL
4,CC(NC(=O)COC(=O)c1cccc(S(=O)(=O)N2CCCC2)c1)c1ccccc1 (centres undefined),11.8 µg/mL
5,O=[N+]([O-])c1cccc(/C=N/n2cnnc2)c1,> 32.6 µg/mL
6,CCCN1C(=O)/C(=C2/C=Cc3ccccc3N2CC)SC1=S,< 0.4 µg/mL
7,Cc1cc(C(C)(C)C)cc(S(=O)(=O)Nc2ccc(C(=O)O)cc2)c1C,40.8 µg/mL
8,O=C(N/C(=C/c1ccc(F)cc1)C(=O)N1CCCCC1)c1ccco1,> 51.4 µg/mL
9,Cc1ccc(S(=O)(=O)N2CCOCC2)cc1NC(=O)CN1C(=O)NC2(CCCC2)C1=O,> 67.6 µg/mL
10,O=C(Cc1ccc(Cl)cc1)Nc1ccc2oc(=O)ccc2c1,2.9 µg/mL
11,Cl.OC(CNCc1cccc(Br)c1)c1ccccc1 (centres undefined),48.1 µg/mL
12,CC12CN3CCN(CC(C3)/C1=N\NC(=O)Nc1cccc(Cl)c1)C2,> 52.2 µg/mL
13,COc1ccc(C(=O)Nc2cccnc2Cl)cc1OC,42.5 µg/mL
14,CCN(CC(=O)Nc1c(F)cccc1F)C(=O)c1ccc(C#N)cc1,> 51.5 µg/mL
15,Cc1ccccc1Nc1c(C)c(C)nc2ncnn12,> 38 µg/mL
16,O=C(NC(=S)Nc1ncccn1)c1ccccc1Br,23.5 µg/mL
17,Cc1cccc(C(=O)OCC(=O)N2CC(C)CC(C)C2)c1C (centres undefined),> 45.5 µg/mL

# Continued, values first:
row,solubility kinetic,Structure (SMILES)
1,> 40.7 µg/mL,Cc1csc(SCC(=O)Nc2nccs2)n1
2,20.7 µg/mL,O=Cc1c(NCc2ccccc2)c2ccccc2[nH]c1=O
3,> 52.1 µg/mL,Cc1ccc(-n2nc3c(c2NC(=O)C(C)(C)C)CS(=O)(=O)C3)cc1
4,55.7 µg/mL,CS(=O)(=O)N(Cc1ccccc1Cl)c1ccc(C(=O)N2CCCC2)cc1
5,0.4 µg/mL,Cc1cccc2sc(N(CCN(C)C)C(=O)c3ccc4ccccc4c3)nc12.Cl
6,9.7 µg/mL,COc1cc(OC)cc(C(=O)Nc2cc(C)on2)c1
7,54.1 µg/mL,CCC(C)Oc1ccc(C(=O)Nc2ccc(CN3CCOCC3)cc2)cc1 (centres undefined)
8,> 47.3 µg/mL,O=C(O)CN(C1CCCCC1)S(=O)(=O)c1ccc(F)cc1
9,0.7 µg/mL,CCOC(=O)c1sc(=NC(=O)c2cccc(C)c2)n(C)c1C
10,> 39 µg/mL,CCCc1c(C)nn(-c2ncccc2[N+](=O)[O-])c1C
11,> 41.5 µg/mL,CCCCOc1ccc(C(=O)N2CCNC(=O)C2)cc1
12,> 41.7 µg/mL,S=C(NCc1ccc(Cl)cc1)Nc1ccncc1
13,46 µg/mL,Cc1ccc(CS(=O)(=O)c2nc3c(c(N(C)C)n2)CCCC3)cc1
14,> 42.6 µg/mL,CCc1ccc(C(=O)COC(=O)c2cnc(C)cn2)cc1
15,> 47.2 µg/mL,Cc1cnc(C(=O)OCC(=O)C23CC4CC(CC(C4)C2)C3)cn1
16,32.7 µg/mL,CC(C)(C)c1cc(NC(=O)c2cccs2)no1
17,> 40.8 µg/mL,Cl.NCC1CC2c3ccccc3C1c1ccccc12 (centres undefined)
18,51.6 µg/mL,Clc1cccc(Cl)c1C[n+]1cccc2ccccc21.[Br-]
19,43.9 µg/mL,CC1CCCCN1C(=O)CCn1c(=S)oc2ccccc21 (centres undefined)
20,23.9 µg/mL,COc1ccc(/C=C2\CCc3ccccc3C2=O)cc1CN1CCOCC1
21,> 51.7 µg/mL,CC(C)C1Oc2ccccc2N(CC(=O)N(C)C2CCCCC2)C1=O (centres undefined)
22,> 46.2 µg/mL,O=C(CCC(=O)Nc1ccccc1Cl)NN=C1CCCC1
23,0.5 µg/mL,O=C(Nc1ccc(F)cc1)Nc1csc2ccccc12
24,0.8 µg/mL,COCc1cc(C)nc(SCc2ccc(Cl)cc2)c1C#N
25,25.7 µg/mL,Nc1ccc2nc(-c3ccccc3)c(-c3ccccc3)nc2c1
